Measured values published in PubChem BioAssay (NCI).
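Exposure lasted 48 hours, with cells grown in 96-well plates and compounds tested at five concentrations. TGI: concentration producing complete growth inhibition.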

What was measured:
Test in all cases: inhibition of tumour cell growth, NCI panel, 48 h
786-0 renal = test system: 786-0 renal
A498 renal = test system: A498 renal
A549 NSCLC = test system: A549 NSCLC
ACHN renal = test system: ACHN renal
BT-549 breast = test system: BT-549 breast
CAKI-1 renal = test system: CAKI-1 renal
CCRF-CEM leukemia = test system: CCRF-CEM leukemia
COLO 205 colon = test system: COLO 205 colon
DU-145 prostate = test system: DU-145 prostate
EKVX NSCLC = test system: EKVX NSCLC
HCC-2998 colon = test system: HCC-2998 colon
HCT-116 colon = test system: HCT-116 colon
HCT-15 colon = test system: HCT-15 colon
HL-60(TB) leukemia = test system: HL-60(TB) leukemia
HOP-62 NSCLC = test system: HOP-62 NSCLC
HOP-92 NSCLC = test system: HOP-92 NSCLC
HT29 colon = test system: HT29 colon
IGROV1 ovarian = test system: IGROV1 ovarian
K-562 leukemia = test system: K-562 leukemia
KM12 colon = test system: KM12 colon
LOX IMVI melanoma = test system: LOX IMVI melanoma
M14 melanoma = test system: M14 melanoma
MALME-3M melanoma = test system: MALME-3M melanoma
MCF7 breast = test system: MCF7 breast
MDA-MB-231 breast = test system: MDA-MB-231 breast
MDA-MB-435 = test system: MDA-MB-435
MDA-N = test system: MDA-N
MOLT-4 leukemia = test system: MOLT-4 leukemia
NCI-H226 lung = test system: NCI-H226 lung
NCI-H23 lung = test system: NCI-H23 lung
NCI-H460 lung = test system: NCI-H460 lung
NCI/ADR-RES ovarian = test system: NCI/ADR-RES ovarian
OVCAR-3 ovarian = test system: OVCAR-3 ovarian
OVCAR-4 ovarian = test system: OVCAR-4 ovarian
OVCAR-5 ovarian = test system: OVCAR-5 ovarian
OVCAR-8 ovarian = test system: OVCAR-8 ovarian
PC-3 prostate = test system: PC-3 prostate
RPMI-8226 leukemia = test system: RPMI-8226 leukemia
RXF 393 renal = test system: RXF 393 renal
SF-295 CNS = test system: SF-295 CNS
SF-539 CNS = test system: SF-539 CNS
SK-MEL-2 melanoma = test system: SK-MEL-2 melanoma
SK-MEL-28 melanoma = test system: SK-MEL-28 melanoma
SK-MEL-5 melanoma = test system: SK-MEL-5 melanoma
SK-OV-3 ovarian = test system: SK-OV-3 ovarian
SN12C renal = test system: SN12C renal
SNB-19 CNS = test system: SNB-19 CNS
SNB-75 CNS = test system: SNB-75 CNS
SR leukemia = test system: SR leukemia
SW-620 colon = test system: SW-620 colon
T-47D breast = test system: T-47D breast
TK-10 renal = test system: TK-10 renal
U251 CNS = test system: U251 CNS
UACC-257 melanoma = test system: UACC-257 melanoma
UACC-62 melanoma = test system: UACC-62 melanoma
UO-31 renal = test system: UO-31 renal
NCI-H522 lung = test system: NCI-H522 lung
SF-268 CNS = test system: SF-268 CNS

C[C@]12CCC(=O)C=C1CC[C@@H]1[C@@H]2CC[C@]2(C)C(=O)/C(=C\c3ccccc3)C[C@@H]12 gave a TGI (786-0 renal) of over 66.8 µM, a TGI (A498 renal) of 42.4 µM and a TGI (A549 NSCLC) of over 68 µM. It also gave a TGI (ACHN renal) of over 100 µM, a TGI (BT-549 breast) of 72.6 µM and a TGI (CAKI-1 renal) of over 100 µM. The TGI (CCRF-CEM leukemia) was 23.3 µM, the TGI (COLO 205 colon) was 55.9 µM and the TGI (DU-145 prostate) was over 100 µM. For the same compound, the TGI (EKVX NSCLC) was over 100 µM, the TGI (HCC-2998 colon) was 35.9 µM and the TGI (HCT-116 colon) was over 48.7 µM. For the same compound, the TGI (HCT-15 colon) was over 100 µM, the TGI (HL-60(TB) leukemia) was over 50.5 µM and the TGI (HOP-62 NSCLC) was over 100 µM. For the same compound, the TGI (HOP-92 NSCLC) was over 86.8 µM, the TGI (HT29 colon) was over 100 µM and the TGI (IGROV1 ovarian) was over 100 µM. The TGI (K-562 leukemia) was over 100 µM, the TGI (KM12 colon) was over 64.3 µM and the TGI (LOX IMVI melanoma) was over 51.5 µM. The TGI (M14 melanoma) was over 66.2 µM, the TGI (MALME-3M melanoma) was 73.9 µM and the TGI (MCF7 breast) was over 56.1 µM. For the same compound, the TGI (MDA-MB-231 breast) was over 100 µM, the TGI (MDA-MB-435) was over 100 µM and the TGI (MDA-N) was 48 µM. For the same compound, the TGI (MOLT-4 leukemia) was over 57 µM, the TGI (NCI-H226 lung) was 33.5 µM and the TGI (NCI-H23 lung) was 62.5 µM. It also gave a TGI (NCI-H460 lung) of over 66 µM, a TGI (NCI/ADR-RES ovarian) of 72.7 µM and a TGI (OVCAR-3 ovarian) of over 77.1 µM. The TGI (OVCAR-4 ovarian) was over 100 µM, the TGI (OVCAR-5 ovarian) was over 100 µM and the TGI (OVCAR-8 ovarian) was over 100 µM. The TGI (PC-3 prostate) was over 53.3 µM, the TGI (RPMI-8226 leukemia) was over 26.1 µM and the TGI (RXF 393 renal) was over 73.7 µM. The TGI (SF-295 CNS) was over 80.3 µM, the TGI (SF-539 CNS) was over 63.6 µM and the TGI (SK-MEL-2 melanoma) was 46.1 µM. The TGI (SK-MEL-28 melanoma) was over 81.4 µM, the TGI (SK-MEL-5 melanoma) was over 48.6 µM and the TGI (SK-OV-3 ovarian) was over 100 µM. The TGI (SN12C renal) was 31.9 µM, the TGI (SNB-19 CNS) was over 100 µM and the TGI (SNB-75 CNS) was over 100 µM. It also gave a TGI (SR leukemia) of over 49.2 µM, a TGI (SW-620 colon) of over 56.9 µM and a TGI (T-47D breast) of over 86.7 µM. The TGI (TK-10 renal) was over 100 µM, the TGI (U251 CNS) was over 69.4 µM and the TGI (UACC-257 melanoma) was over 100 µM. For the same compound, the TGI (UACC-62 melanoma) was over 66.2 µM and the TGI (UO-31 renal) was over 70.6 µM.

Work on O=C(Nc1ccc(F)cc1)c1cc2ccc(O)cc2oc1=Nc1cccc(F)c1 yielded a TGI (786-0 renal) of over 100 µM, a TGI (A498 renal) of over 100 µM and a TGI (ACHN renal) of over 100 µM. It also gave a TGI (BT-549 breast) of 75.4 µM, a TGI (CAKI-1 renal) of over 100 µM and a TGI (CCRF-CEM leukemia) of 71.8 µM. The TGI (COLO 205 colon) was over 100 µM, the TGI (DU-145 prostate) was over 100 µM and the TGI (EKVX NSCLC) was 64.4 µM. It also gave a TGI (HCC-2998 colon) of over 100 µM, a TGI (HCT-116 colon) of over 100 µM and a TGI (HCT-15 colon) of 92.2 µM. It also gave a TGI (HL-60(TB) leukemia) of 83 µM, a TGI (HOP-62 NSCLC) of over 100 µM and a TGI (HT29 colon) of over 100 µM. It also gave a TGI (IGROV1 ovarian) of 49.7 µM, a TGI (K-562 leukemia) of over 100 µM and a TGI (KM12 colon) of over 100 µM. It also gave a TGI (LOX IMVI melanoma) of 52.6 µM, a TGI (MALME-3M melanoma) of over 100 µM and a TGI (MCF7 breast) of over 100 µM. The TGI (MDA-MB-435) was over 100 µM, the TGI (MDA-N) was over 100 µM and the TGI (MOLT-4 leukemia) was over 100 µM. The TGI (NCI-H23 lung) was 55.7 µM, the TGI (NCI-H460 lung) was over 100 µM and the TGI (NCI-H522 lung) was 97.5 µM. For the same compound, the TGI (NCI/ADR-RES ovarian) was over 100 µM, the TGI (OVCAR-3 ovarian) was over 100 µM and the TGI (OVCAR-4 ovarian) was over 100 µM. The TGI (OVCAR-5 ovarian) was over 100 µM, the TGI (OVCAR-8 ovarian) was 41.6 µM and the TGI (PC-3 prostate) was over 100 µM. For the same compound, the TGI (RPMI-8226 leukemia) was over 100 µM, the TGI (SF-268 CNS) was over 100 µM and the TGI (SF-295 CNS) was over 100 µM. For the same compound, the TGI (SF-539 CNS) was over 100 µM, the TGI (SK-MEL-2 melanoma) was over 100 µM and the TGI (SK-MEL-28 melanoma) was over 100 µM. The TGI (SK-MEL-5 melanoma) was 35.6 µM, the TGI (SK-OV-3 ovarian) was over 100 µM and the TGI (SN12C renal) was over 100 µM. It also gave a TGI (SR leukemia) of over 100 µM, a TGI (SW-620 colon) of over 100 µM and a TGI (T-47D breast) of over 100 µM. The TGI (U251 CNS) was over 100 µM, the TGI (UACC-257 melanoma) was over 100 µM and the TGI (UACC-62 melanoma) was over 100 µM.
